Legend:
Type in all cases: cell-based
[1] = system: KMS12PE; test: Cell proliferation inhibition, MTT assay, KMS12PE; conditions: Homo sapiens, 72 h, KMS-12PE multiple myeloma cells, 3-day proliferation
Excerpt: (§1) IGF1R and other tyrosine kinase inhibitors can inhibit the proliferation of certain cancer cell lines indicating their possible therapeutic utility for treating the corresponding cancer types. Cancer cell lines of interest and control normal lines, including CHO, HEK293, BA/F3, COLO205, PC3, DU145, MCF7, Panc1, ACHN, Hep G2, H460, K562, TT, U87-MG, CAOV-3, SK-MEL5, Karpas 299 and human multiple myeloma cell lines H929, MM1s, MM1r, UTMC2, CPM2, KMS11, My5, KMS12PE, My7, JJN3, KMS18, U266, SKMM2, RPMI-8226 are plated in white, clear-bottomed 384-well cell culture plates at 2500-5000 cells per well and supplied with dilutions of tested compounds After a desired period of time (typically 3 days), the number of viable cells is quantitated by using Cell Titer-Glo Luminescent Cell Viability Assay (Promega), a cell proliferation assay system based on detection of total amount of ATP present as a measure of cell metabolic activity. The plated cells are mixed with the Cell Titer-Glo developing reagent and counted in a luminescence multiwell plate reader according to the standard manufacturer's protocol to generate IC50 curves for cell proliferation inhibition. Results are typically reported as percent of growth (% viability =(OD72h(compound)−ODday0))/(OD72h(no compound)−ODday0). Alternatively, viable cells are quantitated by using the conventional colorimetric MTT assay. The MTT assay is based on the cleavage of the yellow tetrazolium salt MTT to purple formazan crystal by metabolic active cells. The formazan is then solubilized, and the concentration determined by optical density at 570 nm. The cells plated and incubated with a compound as described above are supplemented with the solution of MTT and incubated for 2-3 hours. The growth medium is removed and dimethyl sulfoxide is added into each well to dissolve the formazan. The absorbance is measured on an ELISA plate reader with a test wavelength of 570 nm and a background subtraction wavelength of 630 nm to obtain sample signal (OD570-OD630). […] The results are reported in terms of IC50 value for a particular compound and a cell line in the standard 3-day proliferation assay using Cell Titer-Glo. […] The results are reported in terms of IC50 value for a particular compound and a cell line in the standard 3-day proliferation assay using MTT assay.

[2] = system: U266; test: Cell proliferation inhibition, MTT assay, U266; conditions: Homo sapiens, U-266, 72 h, U266 multiple myeloma cells, 3-day proliferation
Excerpt: as §1

[3] = system: RPMI-8226; test: Cell proliferation inhibition, MTT assay, RPMI-8226; conditions: Homo sapiens, 72 h, RPMI-8226 multiple myeloma cells, 3-day proliferation
Excerpt: as §1

[4] = system: JJN3; test: Cell proliferation inhibition, MTT assay, JJN3; conditions: Homo sapiens, JJN-3, 72 h, JJN3 multiple myeloma cells, 3-day proliferation
Excerpt: as §1

[5] = system: My7; test: Cell proliferation inhibition, MTT assay, My7; conditions: Homo sapiens, Multiple myeloma cell, 72 h, My7 multiple myeloma cells, 3-day proliferation
Excerpt: as §1

[6] = system: KMS18; test: Cell proliferation inhibition, MTT assay, KMS18; conditions: Homo sapiens, 72 h, KMS18 multiple myeloma cells, 3-day proliferation
Excerpt: as §1

[7] = system: SKMM2; test: Cell proliferation inhibition, MTT assay, SKMM2; conditions: Homo sapiens, SK-MM-2, 72 h, SKMM2 multiple myeloma cells, 3-day proliferation
Excerpt: as §1

[8] = system: My5; test: Cell proliferation inhibition, MTT assay, My5; conditions: Homo sapiens, Multiple myeloma cell, 72 h, My5 multiple myeloma cells, 3-day proliferation
Excerpt: as §1

| IC50 [2] | IC50 [3] | IC50 [7] | SMILES | IC50 [1] | IC50 [4] | IC50 [5] | IC50 [6] | IC50 [8] |
| --- | --- | --- | --- | --- | --- | --- | --- | --- |
| 1 to 5 µM | 5 to 20 µM | 5 to 20 µM | CCc1cc2c(cc1OCC(=O)CNc1cc[nH]c(=O)c1-c1nc3cc4c(cc3[nH]1)C(=O)N(C1CCN(C)CC1)C4)OCO2 [drawing 849] | 5 to 20 µM | 1 to 5 µM | 1 to 5 µM | 1 to 5 µM | 5 to 20 µM |
| 1 to 5 µM | 5 to 20 µM | 1 to 5 µM | CN1CCC(N2Cc3cc4[nH]c(-c5c(NCC(=O)COc6ccccc6Br)cc[nH]c5=O)nc4cc3C2=O)CC1 [drawing 848] | 1 to 5 µM | 1 to 5 µM | 1 to 5 µM | 0.5 to 1 µM | 1 to 5 µM |
| 1 to 5 µM | 5 to 20 µM | 5 to 20 µM | COc1ccc(OCC(=O)CNc2cc[nH]c(=O)c2-c2nc3cc4c(cc3[nH]2)C(=O)N(C2CCN(C)CC2)C4)c(Cl)c1 [drawing 850] | 1 to 5 µM | 1 to 5 µM | 5 to 20 µM | 1 to 5 µM | 5 to 20 µM |
| 5 to 20 µM | 5 to 20 µM | 5 to 20 µM | Cc1ccc(OCC(=O)CNc2cc[nH]c(=O)c2-c2nc3cc4c(cc3[nH]2)CN(CCCN2CCCC2)C4=O)c(C)c1 [drawing 847] | 5 to 20 µM | 5 to 20 µM | 5 to 20 µM | 5 to 20 µM | 5 to 20 µM |
| 1 to 5 µM | 5 to 20 µM | 5 to 20 µM | Cc1ccc(OCC(=O)CNc2cc[nH]c(=O)c2-c2nc3cc4c(cc3[nH]2)CN(C2CCN(C)CC2)C4=O)c(C)c1 [drawing 845] | 1 to 5 µM | 1 to 5 µM | 1 to 5 µM | 1 to 5 µM | 1 to 5 µM |
